# Test results as given in ChEMBL document CHEMBL3861969, “Acredinone C and the Effect of Acredinones on Osteoclastogenic and Osteoblastogenic Activity” (J Nat Prod, 2016).
# The source made the active and inactive calls. No cut-off for these calls is given here.
# Columns and labels:
# BMDM [1] = test: Inhibition of RANKL-induced OSCAR mRNA expression in mouse BMDM cells at 10 uM preincubated with cells followed by RANKL addition measured after 2 days by real-time PCR analysis; format: functional, cell-based
# [2] = molecular target: Mitogen-activated protein kinase 1 (Mus musculus) (UniProt P63085); test: Inhibition of RANKL-induced ERK2 phosphorylation in mouse BMDM cells assessed as ratio of phosphorylated ERK2 to ERK2 at 10 uM preincubated for 5 mins followed RANKL/M-CSF addition for 5 mins by Western blot analysis (reference value: 2.6); format: cell-based
# Mitogen-activated protein kinase 1 (Mus musculus), sequence (P63085 whole entry): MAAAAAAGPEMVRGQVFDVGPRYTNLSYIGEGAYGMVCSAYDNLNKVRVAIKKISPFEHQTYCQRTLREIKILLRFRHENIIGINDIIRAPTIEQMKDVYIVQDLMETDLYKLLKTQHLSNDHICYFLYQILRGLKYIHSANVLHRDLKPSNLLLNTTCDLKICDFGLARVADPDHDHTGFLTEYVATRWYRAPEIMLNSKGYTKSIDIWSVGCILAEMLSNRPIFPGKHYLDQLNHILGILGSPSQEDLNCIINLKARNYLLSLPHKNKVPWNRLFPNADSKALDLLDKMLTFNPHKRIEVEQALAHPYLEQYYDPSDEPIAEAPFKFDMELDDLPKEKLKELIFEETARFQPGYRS
# BMDM [3] = test: Inhibition of RANKL-induced cathespin K mRNA expression in mouse BMDM cells at 10 uM preincubated with cells followed by RANKL addition measured after 2 days by real-time PCR analysis; format: functional, cell-based
# [4] = molecular target: Mitogen-activated protein kinase 9 (Mus musculus) (UniProt Q9WTU6); test: Inhibition of RANKL-induced JNK2 phosphorylation in mouse BMDM cells assessed as ratio of phosphorylated JNK2 to JNK2 at 10 uM preincubated for 5 mins followed RANKL/M-CSF addition for 5 mins by Western blot analysis (reference value: 5.2); format: cell-based
# Mitogen-activated protein kinase 9 (Mus musculus), sequence (Q9WTU6 whole entry): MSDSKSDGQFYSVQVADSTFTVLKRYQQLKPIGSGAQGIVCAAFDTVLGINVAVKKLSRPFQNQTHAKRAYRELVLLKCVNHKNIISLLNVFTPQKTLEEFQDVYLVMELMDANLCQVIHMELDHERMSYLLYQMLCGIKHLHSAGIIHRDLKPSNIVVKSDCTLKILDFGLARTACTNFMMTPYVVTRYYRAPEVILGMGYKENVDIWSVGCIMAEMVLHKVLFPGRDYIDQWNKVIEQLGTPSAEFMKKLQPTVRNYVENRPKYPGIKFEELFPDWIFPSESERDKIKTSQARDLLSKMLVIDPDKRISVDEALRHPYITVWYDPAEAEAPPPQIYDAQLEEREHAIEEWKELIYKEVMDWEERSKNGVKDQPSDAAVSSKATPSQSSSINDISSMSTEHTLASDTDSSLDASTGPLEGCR
# [5] = molecular target: RAC-alpha serine/threonine-protein kinase (Mus musculus) (UniProt P31750); test: Inhibition of RANKL-induced AKT phosphorylation in mouse BMDM cells assessed as ratio of phosphorylated AKT to AKT at 10 uM preincubated for 5 mins followed RANKL/M-CSF addition for 5 mins by Western blot analysis (reference value: 2.1); format: cell-based
# RAC-alpha serine/threonine-protein kinase (Mus musculus), sequence (P31750 whole entry): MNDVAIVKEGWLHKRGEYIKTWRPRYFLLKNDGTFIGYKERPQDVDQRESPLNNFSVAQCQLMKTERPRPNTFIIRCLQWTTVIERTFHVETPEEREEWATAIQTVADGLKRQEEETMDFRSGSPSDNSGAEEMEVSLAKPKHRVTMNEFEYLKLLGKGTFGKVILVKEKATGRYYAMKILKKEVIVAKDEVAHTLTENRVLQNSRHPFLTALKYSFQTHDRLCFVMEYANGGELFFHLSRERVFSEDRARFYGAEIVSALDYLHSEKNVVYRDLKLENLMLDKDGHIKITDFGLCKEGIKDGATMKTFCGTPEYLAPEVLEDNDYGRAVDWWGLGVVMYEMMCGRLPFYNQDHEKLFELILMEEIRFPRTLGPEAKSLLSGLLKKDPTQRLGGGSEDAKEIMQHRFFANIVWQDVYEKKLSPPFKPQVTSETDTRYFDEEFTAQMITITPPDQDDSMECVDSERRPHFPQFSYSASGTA
# BMDM [6] = test: Inhibition of RANKL-induced mouse BMDM cell differentiation assessed as reduction in TRAP activity at 0.1 to 30 uM using p-nitrophenyl phosphate as substrate preincubated for 5 mins followed by RANKL/M-CSF addition measured after 4 days; format: functional, cell-based
# BMDM [7] = test: Inhibition of RANKL-induced c-Src mRNA expression in mouse BMDM cells at 10 uM preincubated with cells followed by RANKL addition measured after 2 days by real-time PCR analysis; format: functional, cell-based
# [8] = molecular target: MAP kinase p38 (Mus musculus) (UniProt P47811+O08911+Q9WUI1+Q9Z1B7); test: Inhibition of RANKL-induced p38 phosphorylation in mouse BMDM cells assessed as ratio of phosphorylated p38 to p38 at 10 uM preincubated for 5 mins followed RANKL/M-CSF addition for 5 mins by Western blot analysis (reference value: 24.7); format: cell-based
# Mus musculus [9] = organism: Mus musculus; test: Cytotoxicity against mouse C2C12 cells assessed as reduction cell viability after 3 days in presence of BMP2 by CCK-8 assay; format: toxicity, cell-based; details: c2c12, 72 h
# BMDM [10] = test: Inhibition of RANKL-induced mouse BMDM cell differentiation assessed as TRAP-positive MNCs at 0.1 to 30 uM preincubated for 5 mins followed by RANKL/M-CSF addition measured after 4 days by TRAP-staining based assay; format: functional
# [11] = molecular target: T1, NF-kappa-B inhibitor alpha (Mus musculus) (UniProt Q9Z1E3); test: Inhibition of RANKL-induced IkBalpha phosphorylation in mouse BMDM cells at 10 uM preincubated for 5 mins followed RANKL/M-CSF addition for 5 mins by Western blot analysis; format: cell-based
# T1 sequence (whole entry): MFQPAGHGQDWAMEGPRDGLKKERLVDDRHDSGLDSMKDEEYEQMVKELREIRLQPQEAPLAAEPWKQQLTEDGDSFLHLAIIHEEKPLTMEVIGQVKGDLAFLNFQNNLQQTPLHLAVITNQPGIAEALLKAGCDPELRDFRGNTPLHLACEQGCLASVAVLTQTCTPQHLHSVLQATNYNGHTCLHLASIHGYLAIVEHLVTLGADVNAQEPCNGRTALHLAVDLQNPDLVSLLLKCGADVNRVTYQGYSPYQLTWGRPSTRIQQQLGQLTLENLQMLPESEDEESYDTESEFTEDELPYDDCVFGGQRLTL
# C2C12 = test: Induction of BMP2-induced osteoblast differentiation in mouse C2C12 cells assessed as increase in ALP mRNA expression at 10 uM preincubated with cells followed by BMP2 addition measured after 3 days by real-time PCR analysis; format: functional, cell-based
# BMDM [12] = test: Inhibition of RANKL-induced DC-STAMP mRNA expression in mouse BMDM cells at 10 uM preincubated with cells followed by RANKL addition measured after 2 days by real-time PCR analysis; format: functional, cell-based
# [13] = molecular target: Mitogen-activated protein kinase 8 (Mus musculus) (UniProt Q91Y86); test: Inhibition of RANKL-induced JNK1 phosphorylation in mouse BMDM cells assessed as ratio of phosphorylated JNK1 to JNK1 at 10 uM preincubated for 5 mins followed RANKL/M-CSF addition for 5 mins by Western blot analysis (reference value: 3.7); format: cell-based
# Mitogen-activated protein kinase 8 (Mus musculus), sequence (Q91Y86 whole entry): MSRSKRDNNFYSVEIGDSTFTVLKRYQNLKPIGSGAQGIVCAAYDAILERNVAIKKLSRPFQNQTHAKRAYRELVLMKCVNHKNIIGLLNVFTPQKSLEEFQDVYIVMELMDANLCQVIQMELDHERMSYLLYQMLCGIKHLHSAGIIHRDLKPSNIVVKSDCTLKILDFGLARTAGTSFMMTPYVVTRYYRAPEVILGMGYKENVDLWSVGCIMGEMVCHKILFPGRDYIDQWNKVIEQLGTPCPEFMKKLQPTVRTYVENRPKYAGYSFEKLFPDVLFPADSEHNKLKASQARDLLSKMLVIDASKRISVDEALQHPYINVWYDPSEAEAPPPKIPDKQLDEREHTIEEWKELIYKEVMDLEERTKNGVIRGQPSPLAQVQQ
# BMDM [14] = test: Inhibition of RANKL-induced mouse BMDM cell differentiation assessed as TRAP-positive MNCs at 0.1 to 10 uM preincubated for 5 mins followed by RANKL/M-CSF addition measured after 4 days by TRAP-staining based assay; format: functional
# BMDM [15] = test: Inhibition of RANKL-induced NFATc1 mRNA expression in mouse BMDM cells at 10 uM preincubated with cells followed by RANKL addition measured after 2 days by real-time PCR analysis; format: functional, cell-based
# [16] = Inhibition of RANKL-induced c-Fos expression in mouse BMDM cells assessed as ratio of c-Fos to actin at 10 uM preincubated with cells followed RANKL/M-CSF addition measured after 1 day by Western blot analysis (reference value: 6.4); format: functional
# [17] = Inhibition of RANKL-induced NFATc1 expression in mouse BMDM cells assessed as ratio of NFATc1 to actin at 10 uM preincubated with cells followed RANKL/M-CSF addition measured after 1day by Western blot analysis (reference value: 281); format: functional
# BMDM [18] = test: Inhibition of RANKL-induced TRAP mRNA expression in mouse BMDM cells at 10 uM preincubated with cells followed by RANKL addition measured after 2 days by real-time PCR analysis; format: functional, cell-based
# [19] = molecular target: Mitogen-activated protein kinase 3 (Mus musculus) (UniProt Q63844); test: Inhibition of RANKL-induced ERK1 phosphorylation in mouse BMDM cells assessed as ratio of phosphorylated ERK1 to ERK1 at 10 uM preincubated for 5 mins followed RANKL/M-CSF addition for 5 mins by Western blot analysis (reference value: 2.9); format: cell-based
# Mitogen-activated protein kinase 3 (Mus musculus), sequence (Q63844 whole entry): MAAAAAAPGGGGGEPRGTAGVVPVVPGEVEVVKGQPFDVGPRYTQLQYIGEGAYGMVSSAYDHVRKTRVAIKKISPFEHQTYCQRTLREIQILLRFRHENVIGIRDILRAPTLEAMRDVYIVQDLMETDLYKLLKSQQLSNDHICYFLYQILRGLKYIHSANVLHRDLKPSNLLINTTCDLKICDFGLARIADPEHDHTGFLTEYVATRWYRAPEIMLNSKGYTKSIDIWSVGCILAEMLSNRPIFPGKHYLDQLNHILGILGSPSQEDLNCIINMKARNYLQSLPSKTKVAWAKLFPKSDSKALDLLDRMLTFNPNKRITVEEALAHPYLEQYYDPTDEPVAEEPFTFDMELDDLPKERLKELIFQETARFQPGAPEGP
# Osteoclast = test: Inhibition of RANKL-induced mouse BMDM cell differentiation assessed as reduction in TRAP-positive multi-nucleated osteoclast cells preincubated for 5 mins followed by RANKL/M-CSF addition measured after 4 days by light microscopic analysis; format: functional, cell-based
# Mus musculus [20] = organism: Mus musculus; test: Cytotoxicity against mouse BMDM cells assessed as reduction in cell viability up to 10 uM after 3 days in presence of M-CSF by CCK-8 assay; format: toxicity, cell-based; details: 72 h
smiles,measurement,setting,value
COc1cccc(OC)c1C(=O)c1c(O)cc(C)c(OC)c1C(=O)Cc1c(OC)c(C)cc2oc3cccc(OC)c3c(=O)c12,inhibition,BMDM [1],Active
same,fold change (FC),[2],2.6
same,inhibition,BMDM [3],Active
same,fold change (FC),[4],3.7
same,fold change (FC),[5],1.7
same,inhibition,BMDM [6],Active
same,inhibition,BMDM [7],Active
same,fold change (FC),[8],8.2
same,Activity,Mus musculus [9],Non-Toxic
same,inhibition,BMDM [10],Active
same,inhibition,[11],Active
same,Activity,C2C12,Active
same,inhibition,BMDM [12],Active
same,fold change (FC),[13],2.2
same,inhibition,BMDM [14],Active
same,inhibition,BMDM [15],Active
same,fold change (FC),[16],2.4
same,fold change (FC),[17],85
same,inhibition,BMDM [18],Active
same,fold change (FC),[19],3.3
same,inhibition,Osteoclast,Dose-dependent effect
same,Activity,Mus musculus [20],Non-Toxic
